Data reported in patent US12522583B2, “Benzimidazole derivatives and aza-benzimidazole derivatives as Janus kinase 2 inhibitors and uses thereof” (Dana-Farber Cancer Institute, Inc., priority 2018, dated 2026).

Tests used:
Assay in all cases: KINOMEscan
Type in all cases: binding
[1] = biological target: ABL1(Q252H)-nonphosphorylated (Homo sapiens (Human), UniProt P00519, Q252H); conditions: read-out: percent control
Text: (§1) Example 2. In Vitro Kinase Selectivity Profiling of the Compounds of the Present Disclosure

AXL = AXL (Homo sapiens (Human), UniProt P30530); conditions: read-out: percent control
Text: as §1

BMPR2 = BMPR2 (Homo sapiens (Human), UniProt Q13873); conditions: read-out: percent control
Text: as §1

BRK = BRK (Homo sapiens (Human), UniProt Q13882); conditions: read-out: percent control
Text: as §1

BRSK2 = BRSK2 (Homo sapiens (Human), UniProt Q8IWQ3); conditions: read-out: percent control
Sequence of BRSK2 (Q8IWQ3 whole entry): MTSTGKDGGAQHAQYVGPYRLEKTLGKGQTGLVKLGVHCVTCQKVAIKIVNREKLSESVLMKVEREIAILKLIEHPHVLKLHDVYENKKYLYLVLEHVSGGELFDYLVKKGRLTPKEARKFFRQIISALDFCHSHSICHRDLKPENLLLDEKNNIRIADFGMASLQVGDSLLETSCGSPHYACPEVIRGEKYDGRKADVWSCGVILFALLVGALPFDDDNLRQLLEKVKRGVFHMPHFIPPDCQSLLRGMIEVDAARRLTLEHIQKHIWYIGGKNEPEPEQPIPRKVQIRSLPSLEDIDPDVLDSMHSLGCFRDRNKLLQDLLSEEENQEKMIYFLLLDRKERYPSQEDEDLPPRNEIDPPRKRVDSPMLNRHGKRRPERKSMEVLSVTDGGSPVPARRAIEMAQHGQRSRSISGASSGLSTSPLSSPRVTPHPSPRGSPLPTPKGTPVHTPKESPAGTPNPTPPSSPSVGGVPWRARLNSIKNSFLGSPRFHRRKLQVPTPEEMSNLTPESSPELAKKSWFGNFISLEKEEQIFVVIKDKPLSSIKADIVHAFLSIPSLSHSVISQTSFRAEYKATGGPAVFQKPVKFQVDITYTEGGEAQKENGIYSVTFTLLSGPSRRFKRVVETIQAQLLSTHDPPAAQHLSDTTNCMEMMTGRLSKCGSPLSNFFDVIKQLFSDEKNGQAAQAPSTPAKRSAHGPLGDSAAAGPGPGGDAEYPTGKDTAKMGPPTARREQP
Text: as §1

CDKL3 = CDKL3 (Homo sapiens (Human), UniProt Q8IVW4); conditions: read-out: percent control
Sequence of CDKL3 (Q8IVW4 whole entry): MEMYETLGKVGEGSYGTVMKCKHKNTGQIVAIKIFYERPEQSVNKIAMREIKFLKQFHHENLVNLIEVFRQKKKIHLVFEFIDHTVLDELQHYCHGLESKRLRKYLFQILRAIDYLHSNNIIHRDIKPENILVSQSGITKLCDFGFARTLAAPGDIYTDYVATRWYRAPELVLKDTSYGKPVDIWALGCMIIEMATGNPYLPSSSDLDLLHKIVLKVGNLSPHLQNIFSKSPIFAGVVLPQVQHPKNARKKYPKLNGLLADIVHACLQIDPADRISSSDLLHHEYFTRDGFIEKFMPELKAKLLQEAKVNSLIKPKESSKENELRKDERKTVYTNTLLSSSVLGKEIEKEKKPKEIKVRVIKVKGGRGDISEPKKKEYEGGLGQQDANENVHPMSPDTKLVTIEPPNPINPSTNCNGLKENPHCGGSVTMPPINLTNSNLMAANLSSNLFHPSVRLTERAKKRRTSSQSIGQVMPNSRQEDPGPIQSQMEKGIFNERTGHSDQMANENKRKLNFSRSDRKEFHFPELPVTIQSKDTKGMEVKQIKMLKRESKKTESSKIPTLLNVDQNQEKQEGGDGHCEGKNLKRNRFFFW
Text: as §1

CLK3 = CLK3 (Homo sapiens (Human), UniProt P49761); conditions: read-out: percent control
Sequence of CLK3 (P49761 whole entry): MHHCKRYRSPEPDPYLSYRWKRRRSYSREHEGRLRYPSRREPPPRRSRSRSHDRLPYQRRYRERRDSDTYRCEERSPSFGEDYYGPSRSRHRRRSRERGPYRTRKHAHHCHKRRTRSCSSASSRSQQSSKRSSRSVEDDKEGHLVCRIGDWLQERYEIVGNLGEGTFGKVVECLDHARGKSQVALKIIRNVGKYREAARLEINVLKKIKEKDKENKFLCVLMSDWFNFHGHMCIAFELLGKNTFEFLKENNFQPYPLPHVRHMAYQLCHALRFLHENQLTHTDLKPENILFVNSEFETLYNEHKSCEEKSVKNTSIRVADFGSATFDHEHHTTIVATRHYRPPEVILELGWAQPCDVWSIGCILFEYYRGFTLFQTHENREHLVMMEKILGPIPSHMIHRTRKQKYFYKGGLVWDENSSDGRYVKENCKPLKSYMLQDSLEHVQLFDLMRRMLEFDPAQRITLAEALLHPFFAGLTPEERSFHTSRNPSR
Text: as §1

DAPK1 = DAPK1 (Homo sapiens (Human), UniProt P53355); conditions: read-out: percent control
Text: as §1

EGFR(L747-T751del, Sins) = conditions: 1 μM
Text: as §1

ERN1 = ERN1 (Homo sapiens (Human), UniProt O75460); conditions: read-out: percent control
Text: as §1

FER = FER (Homo sapiens (Human), UniProt P16591); conditions: read-out: percent control
Text: as §1

FLT3(D835H) = FLT3(D835H) (Homo sapiens (Human), UniProt P36888, D835H); conditions: read-out: percent control
Text: as §1

FLT3(D835Y) = FLT3(D835Y) (Homo sapiens (Human), UniProt P36888, D835Y); conditions: read-out: percent control
Text: as §1

GRK4 = GRK4 (Homo sapiens (Human), UniProt P32298); conditions: read-out: percent control
Text: as §1

GRK7 = GRK7 (Homo sapiens (Human), UniProt Q8WTQ7); conditions: read-out: percent control
Text: as §1

HCK = HCK (Homo sapiens (Human), UniProt P08631); conditions: read-out: percent control
Text: as §1

HIPK1 = HIPK1 (Homo sapiens (Human), UniProt Q86Z02); conditions: read-out: percent control
Text: as §1

KIT(V559D) = KIT(V559D) (Homo sapiens (Human), UniProt P10721, V559D); conditions: read-out: percent control
Text: as §1

MAP4K4 = MAP4K4 (Homo sapiens (Human), UniProt O95819); conditions: read-out: percent control
Text: as §1

MARK4 = MARK4 (Homo sapiens (Human), UniProt Q96L34); conditions: read-out: percent control
Sequence of MARK4 (Q96L34 whole entry): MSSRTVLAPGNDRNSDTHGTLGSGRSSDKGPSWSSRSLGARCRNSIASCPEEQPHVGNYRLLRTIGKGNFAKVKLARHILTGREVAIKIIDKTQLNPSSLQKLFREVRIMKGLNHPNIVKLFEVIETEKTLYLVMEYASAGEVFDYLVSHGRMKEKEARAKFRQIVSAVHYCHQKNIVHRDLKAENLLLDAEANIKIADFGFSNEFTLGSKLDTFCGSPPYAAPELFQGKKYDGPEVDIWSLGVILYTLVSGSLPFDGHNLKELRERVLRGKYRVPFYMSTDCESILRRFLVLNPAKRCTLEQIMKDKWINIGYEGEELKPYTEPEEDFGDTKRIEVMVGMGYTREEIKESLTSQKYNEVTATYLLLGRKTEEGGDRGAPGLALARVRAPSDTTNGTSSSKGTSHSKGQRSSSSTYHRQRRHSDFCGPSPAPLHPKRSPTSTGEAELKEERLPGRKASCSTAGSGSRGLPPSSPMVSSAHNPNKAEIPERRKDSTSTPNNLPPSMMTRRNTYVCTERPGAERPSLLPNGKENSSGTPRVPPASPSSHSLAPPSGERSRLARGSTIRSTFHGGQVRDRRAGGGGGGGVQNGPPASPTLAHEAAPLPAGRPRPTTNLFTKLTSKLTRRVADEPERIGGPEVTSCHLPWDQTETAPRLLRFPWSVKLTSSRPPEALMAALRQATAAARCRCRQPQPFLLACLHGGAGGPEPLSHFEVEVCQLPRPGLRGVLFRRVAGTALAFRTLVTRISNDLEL
Text: as §1

MEK6 = MEK6 (Homo sapiens (Human), UniProt P52564); conditions: read-out: percent control
Text: as §1

MST1R = MST1R (Homo sapiens (Human), UniProt Q04912); conditions: read-out: percent control
Text: as §1

NDR1 = NDR1 (Homo sapiens (Human), UniProt Q15208); conditions: read-out: percent control
Text: as §1

NEK3 = NEK3 (Homo sapiens (Human), UniProt P51956); conditions: read-out: percent control
Text: as §1

PIK3CA(C420R) = PIK3CA(C420R) (Homo sapiens (Human), UniProt P42336, C420R); conditions: read-out: percent control
Text: as §1

PIM1 = PIM1 (Homo sapiens (Human), UniProt P11309); conditions: read-out: percent control
Sequence of PIM1 (P11309 whole entry): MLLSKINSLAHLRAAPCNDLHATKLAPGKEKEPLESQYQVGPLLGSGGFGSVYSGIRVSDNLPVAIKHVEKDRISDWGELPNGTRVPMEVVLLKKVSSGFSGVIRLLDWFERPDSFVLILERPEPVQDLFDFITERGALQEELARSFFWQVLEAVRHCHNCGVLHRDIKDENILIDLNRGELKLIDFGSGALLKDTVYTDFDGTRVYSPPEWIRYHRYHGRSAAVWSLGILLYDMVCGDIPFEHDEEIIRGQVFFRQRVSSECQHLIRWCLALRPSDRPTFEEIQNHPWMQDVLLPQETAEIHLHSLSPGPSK
Text: as §1

PIP5K2B = PIP5K2B (Homo sapiens (Human), UniProt P78356); conditions: read-out: percent control
Sequence of PIP5K2B (P78356 whole entry): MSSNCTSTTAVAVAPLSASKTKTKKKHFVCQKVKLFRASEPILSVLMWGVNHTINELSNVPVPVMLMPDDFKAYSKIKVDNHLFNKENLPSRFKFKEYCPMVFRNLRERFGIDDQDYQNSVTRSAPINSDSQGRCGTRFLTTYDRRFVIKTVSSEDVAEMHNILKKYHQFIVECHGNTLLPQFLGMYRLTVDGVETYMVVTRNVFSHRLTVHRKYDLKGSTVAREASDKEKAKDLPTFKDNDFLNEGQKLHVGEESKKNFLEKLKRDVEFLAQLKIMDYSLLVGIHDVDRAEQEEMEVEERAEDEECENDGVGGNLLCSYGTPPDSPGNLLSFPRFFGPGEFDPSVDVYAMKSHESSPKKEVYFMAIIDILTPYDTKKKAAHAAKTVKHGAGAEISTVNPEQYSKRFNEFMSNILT
Text: as §1

PKMYT1 = PKMYT1 (Homo sapiens (Human), UniProt Q99640); conditions: read-out: percent control
Text: as §1

PYK2 = PYK2 (Homo sapiens (Human), UniProt Q14289); conditions: read-out: percent control
Text: as §1

RIOK1 = RIOK1 (Homo sapiens (Human), UniProt Q9BRS2); conditions: read-out: percent control
Text: as §1

RIPK1 = RIPK1 (Homo sapiens (Human), UniProt Q13546); conditions: read-out: percent control
Sequence of RIPK1 (Q13546 whole entry): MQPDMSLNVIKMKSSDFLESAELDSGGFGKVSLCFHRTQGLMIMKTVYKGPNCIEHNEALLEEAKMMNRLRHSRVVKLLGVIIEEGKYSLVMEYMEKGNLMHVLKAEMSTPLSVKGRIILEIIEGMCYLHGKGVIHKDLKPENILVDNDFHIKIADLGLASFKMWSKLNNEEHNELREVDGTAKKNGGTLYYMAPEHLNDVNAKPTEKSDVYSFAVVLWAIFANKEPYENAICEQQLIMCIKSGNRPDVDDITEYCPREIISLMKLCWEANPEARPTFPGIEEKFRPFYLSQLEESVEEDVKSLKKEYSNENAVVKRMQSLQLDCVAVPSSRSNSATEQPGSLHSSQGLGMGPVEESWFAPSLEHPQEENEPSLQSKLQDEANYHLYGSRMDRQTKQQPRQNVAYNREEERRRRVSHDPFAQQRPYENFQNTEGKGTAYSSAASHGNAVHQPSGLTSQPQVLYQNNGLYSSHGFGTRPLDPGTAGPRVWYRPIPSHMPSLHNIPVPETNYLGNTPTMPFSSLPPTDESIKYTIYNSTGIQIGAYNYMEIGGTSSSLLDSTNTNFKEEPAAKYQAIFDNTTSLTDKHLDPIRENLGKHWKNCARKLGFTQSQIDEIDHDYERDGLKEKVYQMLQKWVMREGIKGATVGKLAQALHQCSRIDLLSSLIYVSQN
Text: as §1

ROCK1 = ROCK1 (Homo sapiens (Human), UniProt Q13464); conditions: read-out: percent control
Text: as §1

ROCK2 = ROCK2 (Homo sapiens (Human), UniProt O75116); conditions: read-out: percent control
Text: as §1

SRPK1 = SRPK1 (Homo sapiens (Human), UniProt Q96SB4); conditions: read-out: percent control
Text: as §1

TLK1 = TLK1 (Homo sapiens (Human), UniProt Q9UKI8); conditions: read-out: percent control
Text: as §1

TNNI3K = TNNI3K (Homo sapiens (Human), UniProt Q59H18); conditions: read-out: percent control
Text: as §1

TTK = TTK (Homo sapiens (Human), UniProt P33981); conditions: read-out: percent control
Sequence of TTK (P33981 whole entry): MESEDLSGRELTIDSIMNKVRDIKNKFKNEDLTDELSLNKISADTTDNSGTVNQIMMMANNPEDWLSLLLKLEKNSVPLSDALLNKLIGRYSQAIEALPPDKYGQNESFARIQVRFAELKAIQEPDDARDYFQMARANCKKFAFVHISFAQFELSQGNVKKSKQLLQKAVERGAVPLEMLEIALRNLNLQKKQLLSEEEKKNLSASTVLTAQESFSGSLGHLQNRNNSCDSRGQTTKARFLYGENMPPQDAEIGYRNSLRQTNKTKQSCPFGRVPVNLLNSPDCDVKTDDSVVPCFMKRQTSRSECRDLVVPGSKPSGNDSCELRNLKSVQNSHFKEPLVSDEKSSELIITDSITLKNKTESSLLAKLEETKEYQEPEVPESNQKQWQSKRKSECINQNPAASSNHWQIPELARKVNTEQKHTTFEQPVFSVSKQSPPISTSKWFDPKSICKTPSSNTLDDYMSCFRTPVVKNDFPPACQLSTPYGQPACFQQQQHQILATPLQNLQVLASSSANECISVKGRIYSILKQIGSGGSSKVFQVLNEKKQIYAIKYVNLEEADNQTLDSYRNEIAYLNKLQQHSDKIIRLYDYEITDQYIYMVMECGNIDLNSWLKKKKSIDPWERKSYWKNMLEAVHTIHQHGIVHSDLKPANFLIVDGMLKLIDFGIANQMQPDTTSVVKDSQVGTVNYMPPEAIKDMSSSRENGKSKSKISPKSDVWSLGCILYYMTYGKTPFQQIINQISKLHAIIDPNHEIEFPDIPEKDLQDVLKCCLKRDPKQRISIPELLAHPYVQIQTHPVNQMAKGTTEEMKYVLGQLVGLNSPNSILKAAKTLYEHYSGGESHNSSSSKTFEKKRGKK
Text: as §1

[2] = biological target: TYK2(JH1domain-catalytic) (Homo sapiens (Human), UniProt P29597); conditions: read-out: percent control
Text: as §1

ULK1 = ULK1 (Homo sapiens (Human), UniProt O75385); conditions: read-out: percent control
Text: as §1

ULK3 = ULK3 (Homo sapiens (Human), UniProt Q6PHR2); conditions: read-out: percent control
Text: as §1

YSK4 = YSK4 (Homo sapiens (Human), UniProt Q56UN5); conditions: read-out: percent control
Text: as §1

`CCN1CCN(Cc2ccc(Nc3nc4ccc(Oc5ccnc(NC(C)=O)c5)cc4n3C)cc2C(F)(F)F)CC1` [Compound I-2] gave a remaining binding at 1 µM [1] of 0%, a remaining binding at 1 µM (AXL) of 86% and a remaining binding at 1 µM (BMPR2) of 100%. It also gave a remaining binding at 1 µM (BRK) of 100%, a remaining binding at 1 µM (BRSK2) of 100% and a remaining binding at 1 µM (CDKL3) of 7.6%. For the same compound, the remaining binding at 1 µM (CLK3) was 94%, the remaining binding at 1 µM (DAPK1) was 87% and the percent control (EGFR(L747-T751del, Sins)) was 98%. The remaining binding at 1 µM (ERN1) was 91%, the remaining binding at 1 µM (FER) was 91% and the remaining binding at 1 µM (FLT3(D835H)) was 47%. For the same compound, the remaining binding at 1 µM (FLT3(D835Y)) was 70%, the remaining binding at 1 µM (GRK4) was 99% and the remaining binding at 1 µM (GRK7) was 88%. The remaining binding at 1 µM (HCK) was 89%, the remaining binding at 1 µM (HIPK1) was 56% and the remaining binding at 1 µM (KIT(V559D)) was 0%. For the same compound, the remaining binding at 1 µM (MAP4K4) was 100%, the remaining binding at 1 µM (MARK4) was 98% and the remaining binding at 1 µM (MEK6) was 88%. It also gave a remaining binding at 1 µM (MST1R) of 80%, a remaining binding at 1 µM (NDR1) of 90% and a remaining binding at 1 µM (NEK3) of 77%. It also gave a remaining binding at 1 µM (PIK3CA(C420R)) of 100%, a remaining binding at 1 µM (PIM1) of 100% and a remaining binding at 1 µM (PIP5K2B) of 57%. It also gave a remaining binding at 1 µM (PKMYT1) of 91%, a remaining binding at 1 µM (PYK2) of 33% and a remaining binding at 1 µM (RIOK1) of 100%. For the same compound, the remaining binding at 1 µM (RIPK1) was 88%, the remaining binding at 1 µM (ROCK1) was 100% and the remaining binding at 1 µM (ROCK2) was 100%. The remaining binding at 1 µM (SRPK1) was 50%, the remaining binding at 1 µM (TLK1) was 87% and the remaining binding at 1 µM (TNNI3K) was 23%. It also gave a remaining binding at 1 µM (TTK) of 75%, a remaining binding at 1 µM [2] of 23% and a remaining binding at 1 µM (ULK1) of 100%. It also gave a remaining binding at 1 µM (ULK3) of 92% and a remaining binding at 1 µM (YSK4) of 51%.
With `CCN1CCN(Cc2ccc(Nc3nc4ccc(Oc5ccnc(NC(C)=O)c5)c(C)c4n3C)cc2C(F)(F)F)CC1` [Compound I-6, N-(4-(2-(4-((4-ethylpiperazin-1-yl)methyl)-3-(trifluoromethyl)phenylamino)-1,7-dimethyl-1H-benzo[d]imidazol-6-yloxy)pyridin-2-yl)acetamide] the remaining binding at 1 µM [1] was 1.9%, the remaining binding at 1 µM (AXL) was 61% and the remaining binding at 1 µM (BMPR2) was 100%. For the same compound, the remaining binding at 1 µM (BRK) was 89%, the remaining binding at 1 µM (BRSK2) was 74% and the remaining binding at 1 µM (CDKL3) was 0.4%. The remaining binding at 1 µM (CLK3) was 95%, the remaining binding at 1 µM (DAPK1) was 99% and the percent control (EGFR(L747-T751del, Sins)) was 100%. The remaining binding at 1 µM (ERN1) was 97%, the remaining binding at 1 µM (FER) was 100% and the remaining binding at 1 µM (FLT3(D835H)) was 24%. It also gave a remaining binding at 1 µM (FLT3(D835Y)) of 56%, a remaining binding at 1 µM (GRK4) of 81% and a remaining binding at 1 µM (GRK7) of 95%. It also gave a remaining binding at 1 µM (HCK) of 34%, a remaining binding at 1 µM (HIPK1) of 81% and a remaining binding at 1 µM (KIT(V559D)) of 0.15%. For the same compound, the remaining binding at 1 µM (MAP4K4) was 93%, the remaining binding at 1 µM (MARK4) was 83% and the remaining binding at 1 µM (MEK6) was 71%. For the same compound, the remaining binding at 1 µM (MST1R) was 83%, the remaining binding at 1 µM (NDR1) was 100% and the remaining binding at 1 µM (NEK3) was 92%. The remaining binding at 1 µM (PIK3CA(C420R)) was 99%, the remaining binding at 1 µM (PIM1) was 98% and the remaining binding at 1 µM (PIP5K2B) was 98%. It also gave a remaining binding at 1 µM (PKMYT1) of 90%, a remaining binding at 1 µM (PYK2) of 8.8% and a remaining binding at 1 µM (RIOK1) of 100%. For the same compound, the remaining binding at 1 µM (RIPK1) was 96%, the remaining binding at 1 µM (ROCK1) was 83% and the remaining binding at 1 µM (ROCK2) was 90%. The remaining binding at 1 µM (SRPK1) was 83%, the remaining binding at 1 µM (TLK1) was 93% and the remaining binding at 1 µM (TNNI3K) was 51%. It also gave a remaining binding at 1 µM (TTK) of 96%, a remaining binding at 1 µM [2] of 36% and a remaining binding at 1 µM (ULK1) of 56%. For the same compound, the remaining binding at 1 µM (ULK3) was 79% and the remaining binding at 1 µM (YSK4) was 67%.
